Measured values reported in US8729055B2, “Ursolic acid derivative and pharmaceutical composition thereof” (Kaohsiung Medical University, priority 2010, dated 2014).

Experiments:
[1] = test system: rat peritoneal mast cells stimulated with compound 48/80; assay: Experiment C: release of β-glucuronidase from rat peritoneal mast cells stimulated with compound 48/80; format: cell-based; details: 30 μM; given when 50% inhibition not reached
Protocol: (§1) This example illustrates the anti-inflammatory activities of compounds 5, 7-11, 20 and 21. The anti-inflammatory activities of compounds 5, 7-11, 20 and 21 are studied in vitro for their inhibitory effects on chemical mediators released from neutrophils, mast cells or macrophages of rat.
(§2) Please refer to Table 2, which illustrates the inhibitory effects of compounds 5, 7-11, 20 and 21 on the accumulation of NO2^− (Experiment A), superoxide anion formation (n mol/10^6 cells/30 min) from rat neutrophils stimulated with PMA (Experiment B), and the release of β-glucuronidase from rat peritoneal mast cells stimulated with compound 48/80 (Experiment C). In Table 2, when 50% inhibition could not be reached at the highest concentration, the percentage of inhibition at 30 μM is given.
In the Experiment C, Heparinized Tyrode's solution is injected into the peritoneal cavity of exsanguinated rat (Sprague-Dawley, 250-300 g). After abdominal massage, cells in the peritoneal fluid are harvested and then separated in 38% bovine serum albumin (BSA) in glucose-free Tyrode's solution. […] Fifteen min after the addition of compound 48/80 ([…]), β-glucuronidase (phenolphthalein-β-glucuronide as substrate, 550 nm) in the supernatant is determined. The total content of β-glucuronidase is measured after treatment of the cell suspension with Triton X-100, and the percentage release is calculated. […]

[2] = test system: accumulation of NO2−; assay: Experiment A: accumulation of NO2− (Griess reaction); format: cell-based, rat; details: inhibition of accumulation of NO2−
Protocol: as §1, §2
In the Experiment A, Nitric oxide (NO) in the cell medium is determined by the Griess reaction, and N-(3-aminomethyl)benzylamide (1400 W) is used as a positive control.

[3] = test system: NTUB1 cells (human bladder cancer cell line); assay: MTT cytotoxicity assay against NTUB1 cells; format: cell-based
Protocol: In the present embodiment, cell culture and MTT assay is used for cell viability/proliferation. NTUB1, a human bladder cancer cell line, is established from a high-grade bladder cancer. […] The cells are cultured at 37° C. in a humidified atmosphere containing 5% CO2. […] Briefly, the cells are plated at a density of 1800 cells/well in 96-well plates and incubated at 37° C. overnight before drug exposure. Cells are then cultured in the presence of graded concentrations of the test compound with or without various concentrations of cisplatin (Pharmacia & Upjohn, Milan, Italy) at 37° C. for 72 h. At the end of the culture period, 50 μL of MTT (2 mg/mL in PBS) is added to each well and allowed to react for 3 h. Following centrifugation of plates at 1000 g for 10 min, media are removed and 150 μL DMSO are added to each well. The proportions of surviving cells are determined by absorbance spectrometry at 540 nm using […]) microplate reader. The cell viability is expressed as a percentage to the viable cells of control culture condition. The IC50s of each group are calculated by the […] analysis and presented as mean±standard deviation (SD). […] In Table 1, data are presented as mean±SD (n=5). […] The control cells are treated with culture medium containing 0.1% DMSO. Cisplatin is used as a positive control.

[4] = test system: microtubule assembly in NTUB1 cells; assay: Microtubule assembly by indirect immunofluorescence staining in NTUB1 cells; format: cell-based, human; details: 10 nM taxol, FIG. 5(B)
Protocol: All inhibition of tubulin polymerization has been implicated in G2/M phase cell cycle arrest in various cancer cell lines. Accordingly, whether treatment of cells with 20 μM compound 23 for 48 h affects in vivo microtubular architecture is investigated in the present example. Microtubule assembly is analyzed by indirect immunofluorescence staining using an anti-tubulin antibody (Santa Cruz Biotechnology, Santa Cruz, Calif., USA).
NTUB1 cells plated on coverslips are treated with no compound as control, 10 nM taxol, 50 μM compound 23 for 24 h. After treatment, cells are fixed with 2% formaldehyde/PBS for 20 min, washed with PBS, and cold methanol (−20° C.) for 3 min. After washing with PBS, cells are added anti-α-tubulin monoclonal antibody (Sigma, Co) in PBS and incubated for 3 h at room temperature. Then cells are washed with PBS and reincubated with Rodamine-conjugated secondary antibody (Sigma, Co) in dark room for 1 h at room temperature. After being washed with PBS, coverslips are mounted with 80% glycerol in PBS and examined with Axioskop 2 plus fluorescence microscope.
Please refer to FIGS. 5(A) to 5(C), which are diagrams showing the effects of taxol and compound 23 on microtubule assembly, wherein the cellular microtubules are observed by Axioskop 2 plus fluorescence microscope.

IC50 [2] | SMILES | percentage of inhibition at 30 μM, C β-glucuronidase [1] | IC50 ([3]; NTUB1 cells, MTT, 72 h, mean±SD (n=5)) | % of viability at the highest concentration ([3]; NTUB1 cells, given when 50% inhibition not reached at the highest concentration (30 μM)) | cytotoxic activity against NTUB1 cells, in words ([3]; comparison with the parent compound, from Table 1) | effect on microtubule assembly [4]
15.6 ± 2.5 µM | C=C(C)[C@@H]1CC[C@]2(C)[C@H](CC=C3[C@@H]4[C@@H](C)[C@H](C)CC[C@]4(C(=O)O)CC[C@]32C)[C@@]1(C)CCC(=O)OC [Compound 21, Methyl 3,4-seco-ursan-4(23), 12-dien-28-oic 3-oat] | 29.3 ± 2.1% | > 30 µM | 62.77% | weakens cytotoxic activities | 
 | CC(=O)O[C@H]1C(=O)[C@@]2(C)[C@H]([C@H](OC(=O)c3ccccc3)[C@]3(O)C[C@H](OC(=O)[C@H](O)[C@@H](NC(=O)c4ccccc4)c4ccccc4)C(C)=C1C3(C)C)[C@]1(OC(C)=O)CO[C@@H]1C[C@@H]2O [taxol] |  |  |  |  | distinctive microtubule bundle
